The source of these data is PubChem BioAssay AID1259332 (Broad Institute, 2017).

Activity calls are given as the source filed them. The rule behind the calls is not given here.

A short description of the test: CD40 pathway inhibition in B cells – B cell lineage, dose response (AID 1259332).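 Note: cells stimulated with CD40 ligand tCD40L; 0% = neutral control wells and -100% = positive control wells.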 The following applies: B cell line, CD40 signaling inhibition reporter.

With `CCSc1ccc(-c2cc(NC=O)c3ncc(-c4cccc(C(=O)N(C)C)c4)n3c2)cc1`, the activity change, negative = inhibition (at 10 µM (top of the series)) is 21.6% (inactive).

With `O=C1C=CC(=O)C2=C1C1c3ccccc3C2c2ccccc21`, the activity change, negative = inhibition (at 3.5 µM (top of the series)) is -3.76% (inactive).

Turning to `Cc1ccc(-c2nn3c(C)nnc3c3ccccc23)cc1S(=O)(=O)NCc1ccccc1`, the activity change, negative = inhibition (at 10 µM (top of the series)) is 3.44% (inactive).

Turning to `N#C[C@H]1[C@@H](c2ccc(C#CC3CCCCC3)cc2)[C@@H](CO)N1C(=O)Nc1ccc(F)cc1`, under “at 3.5 µM (top of the series)”, the activity change, negative = inhibition is 2.75% (inactive).

Consider `COc1ccc(C(=O)/C=C/C(=O)N(CC(=O)NC2CCCCC2)Cc2ccc(F)cc2)c(O)c1`, for which the activity change, negative = inhibition (at 10 µM (top of the series)) is -5.51% (inactive).

On to `CO[C@@H](CN(C)S(=O)(=O)c1ccc(Cl)cc1)[C@H](C)CN(Cc1ccccc1Cl)[C@@H](C)CO`, for which the activity change, negative = inhibition (at 1.1 µM (top of the series)) is 0.243% (inactive).

Consider `Cc1cc(C(=O)COC(=O)c2cccn2C)c(C)n1Cc1ccco1`, for which the activity change, negative = inhibition (at 10 µM (top of the series)) is -4.27% (inactive).

In the case of `COc1ccc(C#Cc2ccc([C@H]3[C@@H](CO)N4CCCCN(S(=O)(=O)c5cn(C)cn5)C[C@H]34)cc2)cc1`, where the note is “at 1.1 µM (top of the series)”, the activity change, negative = inhibition was 15.6% (inactive).

As for `O=C(Nc1nc2ccccc2s1)c1ccc(OCC2CCCO2)cc1` (stereo unspecified), where the note is “at 1.1 µM (top of the series)”, the activity change, negative = inhibition was 111% (inactive).

For the molecule `COc1ccc2c3c(n(C)c2c1)[C@H](CO)N(C(=O)Nc1ccc(F)cc1)CC31CCN(C(=O)c2ccc3c(c2)OCO3)CC1`, the activity change, negative = inhibition (at 10 µM (top of the series)) was 7.94% (inactive).

Consider `C[C@@H]1CN([C@@H](C)CO)S(=O)(=O)c2ccc(C#Cc3ccccc3F)cc2O[C@H]1CN(C)C(=O)Cc1cccnc1`, for which the activity change, negative = inhibition (at 10 µM (top of the series)) was -17.7% (inactive).

Take `C[C@@H]1CN([C@H](C)CO)C(=O)Cc2cc(NC(=O)Cc3cn(C)c4ccccc34)ccc2O[C@H]1CN(C)Cc1ccc(C(F)(F)F)cc1`: the activity change, negative = inhibition (at 3.5 µM (top of the series)) is 0.703% (inactive).

Regarding `O=C(c1ccc(-c2ccc([N+](=O)[O-])cc2)o1)N1CCCC(C(F)(F)F)C1` (stereo unspecified), under “at 10 µM (top of the series)”, the activity change, negative = inhibition is 7.32% (inactive).

Regarding `COc1ccc(CN2CC3(CN(S(=O)(=O)c4ccc(C)cc4)C3)c3c([nH]c4cc(OC)ccc34)[C@H]2CO)cc1`, the activity change, negative = inhibition (at 10 µM (top of the series)) is -1.27% (inactive).

Take `C(=Cc1c[nH]c2ccccc12)c1nccc2ccccc12`: the activity change, negative = inhibition (at 10 µM (top of the series)) is 74.5% (inactive).

`Cc1ccc(C2(C)NC(=O)N(CC(=O)Nc3cccnc3Cl)C2=O)cc1` (stereo unspecified): the activity change, negative = inhibition (at 10 µM (top of the series)) was -2.81% (inactive).

As for `C[C@@H]1CCCCO[C@@H](CN(C)S(=O)(=O)c2ccc(Cl)cc2)[C@H](C)CN([C@H](C)CO)C(=O)c2cc(NC(=O)Nc3ccc(C(F)(F)F)cc3)ccc2O1`, the activity change, negative = inhibition (at 1.1 µM (top of the series)) was 1.11% (inactive).

Regarding `CCN1C(=O)C(CC(=O)Nc2ccc(OC)cc2)N(CCc2ccc(F)cc2)C1=S` (stereo unspecified), the activity change, negative = inhibition (at 10 µM (top of the series)) is -3.22% (inactive).

Turning to `C[C@]12CC[C@H](O)C[C@H]1CC[C@@H]1[C@@H]2CC[C@]2(C)[C@@H](c3ccc(=O)oc3)CC[C@]12O`, the activity change, negative = inhibition (at 3.5 µM (top of the series)) was 1.4% (inactive).

Regarding `N=C(N)c1ccc(OCCCCCOc2ccc(C(=N)N)cc2)cc1`, where the note is “at 10 µM (top of the series)”, the activity change, negative = inhibition is -0.281% (inactive).

In the case of `C[C@@H]1CN([C@@H](C)CO)C(=O)c2c(c3ccccc3n2C)-c2ccccc2CO[C@H]1CN(C)S(=O)(=O)c1ccc([N+](=O)[O-])cc1`, where the note is “at 10 µM (top of the series)”, the activity change, negative = inhibition was -6.57% (inactive).

As for `c1ccc(CCSc2nccn2-c2ccccc2)cc1`, the activity change, negative = inhibition (at 0.38 µM (top of the series)) is 36.4% (inactive).

In the case of `O=S(=O)(c1cccc2cnccc12)N1CCNCC1`, the activity change, negative = inhibition (at 3.5 µM (top of the series)) is -9.07% (inactive).

`COc1ccc(Cl)cc1NC(=O)Nc1cc(C)nc2ccccc12`: the activity change, negative = inhibition (at 3.5 µM (top of the series)) was -7.79% (inactive).

For `CCCNC(=O)N1[C@H](CO)[C@H](c2ccc(/C=C/c3ccccc3)cc2)[C@@H]1C#N`, the activity change, negative = inhibition (at 3.5 µM (top of the series)) was 5% (inactive).

For `CC(C)(C)n1cc(C(=O)c2ccc3ccccc3c2O)cn1`, the activity change, negative = inhibition (at 10 µM (top of the series)) is -16.1% (inactive).
